In US20170051149A1, “AZOARYLS AS REVERSIBLY MODULATABLE TUBULIN INHIBITORS” (ECOLE NORMALE SUPERIEURE DE LYON, priority 2014, published 2017):

Tests used:
HeLa cells = test: cytotoxicity by crystal violet staining; assay type: cell-based; conditions: 40 h
Method: Seven of the compounds according to the invention were selected for biological tests. Their cytotoxicity was assessed using crystal violet staining as adapted from standard procedure^[31]. Briefly, HeLa cells were seeded on 96-well plates, treated with the given concentrations of the selected compound, and exposed or not to the pulse protocol of illumination with light at 390 nm (pulses of 75 ms every 15 s). After 40 h cells were stained with crystal violet solution (0.5% crystal violet in 20% methanol) for 10 min. Unbound crystal violet was removed by rinsing with distilled water and cells were air-dried. Crystal violet was subsequently eluted from cells with 0.1 M sodium citrate in 50% ethanol. The absorbance of crystal violet is proportional to the cell number and was determined at 590 nm with a FLUOstar Omega microplate reader (BMG Labtech).
Each compound was tested at 6 doses: 100 nM, 500 nM, 1 μM, 2 μM, 5 μM and 10 μM. In order to ensure their solubility in the cell culture media, DMSO was used as a co-solvent, and to provide comparability between all samples the volume of DMSO was adjusted to obtain its final concentration as 1% in the cell culture media for all the compounds at all concentrations tested.
Results presented in Table 4 below are expressed as a fold growth relative to the control growth of the cells treated only with a co-solvent (1% DMSO), and are represented as a mean value from triplicates coming from a representative experiment.

[1] = UV-Vis absorption spectra of trans and cis isomers (λstrong, εE, λiso); assay type: physicochemical; conditions: PBS pH = 7.4, 20% MeCN
Method: A(λmeas, λirrad) is used to indicate the measured UV-Vis absorption spectrum in the range 340 nm<λmeas<650 nm, as a function of the irradiating wavelength λirrad once PSS(λirrad) has been established. UV-Vis measurement of A(λmeas, λirrad) was performed. It was considered that the PSS had been established when the absorbance profile ceased to alter under continued irradiation. An isosbestic point (wavelength λiso) was found for each compound by examining where the absorption A(λmeas) was invariant with respect to changing λirrad. A(λmeas, dark) was also acquired with samples that had been kept in the dark for at least several hours, and it was assumed that no significant spectral contribution from the cis isomer was present in these spectra. […]
HPLC (high-performance liquid chromatography) was then used as described in Part A to measure ε*E(λ) and ε*Z(λ) (the separated absorption profiles of trans and cis isomers respectively, in arbitrary units which are not intercomparable in an absolute sense). It was approximated that these spectra would be identical in shape if measured under the UV-Vis conditions, so once ε*E(λ) and ε*Z(λ) were scaled appropriately relative to each other, these scaled spectra could be used to deconvolute A(λmeas, λirrad). This approximation was considered useful especially in the regions of greatest spectral interest, ie. regions of relatively strong absorption (since only rather well-absorbed wavelengths will allow significant photoisomerisation under finite photon flux). To place the arbitrary-unit absorption spectra on an absolute scale, the maximal absorption wavelength λstrong of the trans-isomer was first selected by examining A(λmeas, dark): typically, λstrong≈380 nm. with Expressing A(λstrong, dark) in units M^−1cm^−1, ε*E(λstrong) was then scaled so that εE(λstrong)=A(λstrong, dark), giving:
εE(λ)=ε*E(λ)×[A(λstrong,dark)/ε*E(λstrong)]
and the isosbestic point was used to scale the cis-isomer spectrum as per:
εZ(λ)=ε*Z(λ)×[εE(λiso)/ε*Z(λiso)]
However, using A(λstrong, dark) was preferred, since A(λiso) was typically so much smaller that the standard deviation in the scaled absorptivities which it generated was far greater.
Absorption spectra in cuvette (“UV-Vis”) were acquired on a Varian CaryScan 50 (1 cm, 100 μL or 1 mL volume) with Peltier cell temperature control unit maintained at 37° C., in PBS at pH˜7.4 containing a low percentage of cosolvent if needed (typically 2% MeCN or 5% DMSO). A ThorLabs Polychrome V monochromator with a fibre optic cable output directed into the cuvette was used to perform photoisomerisation studies by UV-Vis spectrophotometry although single LEDs of approximately 10-20 mW output, 15-20° cone angle, and 10-15 nm bandwidth FWHM, obtained commercially from Roithner Lasertechnik GmbH, were equally successful in providing repeatable monochromatic photoisomerisation. Separated spectra of trans and […] forms were acquired from the inline Diode Array Detector on the AGILENT 1260 SL coupled LC-MS system after HPLC separation. Fluorescence spectrophotometry (excitation and emission spectra) were acquired on a Varian CaryEclipse fluorescence spectrophotometer.
By the above procedure, the trans- and cis-isomers of each species were separated by HPLC as described in Part A, and ε*E(λ) and ε*Z(λ) were measured on the inline ultraviolet/visible Diode Array Detector; these were then scaled as outlined above. The parameters λstrong, εE(λstrong) and λiso are tabulated for selected compounds below (Table 1).

[2] = thermal reversion halflife of spontaneous cis->trans isomerisation; assay type: physicochemical; conditions: PBS pH = 7.4, 20% MeCN
Source text: Finally, trends in τ were ascertained by establishing the PSS at λstrong, then turning off the light source at time t0, and measuring A(λstrong, t) over time. Data were acquired for half an hour, or else the first three halflives (whichever was the shorter period), then fitted to the equation:
A(λstrong,t)=A(λstrong,dark)−[A(λstrong,dark)−A(λstrong,t0)]×e^−kt
This fit was used to return an in vitro halflife τ* for the cis->trans spontaneous thermal reversion isomerisation process, defined as τ=ln 2/k. It should be noted however, that azoaryl compounds' thermal reversion rates are known to depend strongly upon their microenvironment, such as pH and solvent/solvation effects^[7,38]. This was shown for compound (I.1), where a change of only 1.4 pH units gave a 25% change in τ*; note that different compounds are expected to respond very differently to changes in pH so no unifying trends are expected. Therefore the τ* acquired in vitro were considered appropriate only for qualitative intercomparison between samples (trend of τ* vs structure), rather than quantitative prediction of the τ values which might be experienced in cellulo or in vivo. Indeed, these in vitro τ* values appeared at least three times longer than what would have been expected based on in cellulo experiments where the pause time between activating pulses was varied.
Thermal reversion times were measured as described above. Those for selected compounds are presented below (Table 2).

[3] = photoisomerisation: photostationary state, calculated φ(λ) and E(λ), reversible cycling; assay type: physicochemical; conditions: irradiation at 390 nm
Method: In a simple analysis of the PSS(λ) and E(λ), it was approximated that ΦEZ and ΦZE (the quantum efficiencies of the photoisomerisations trans->cis and cis->trans, respectively) are equal and independent of wavelength, and also that the kinetics of spontaneous reversion could be ignored (eg. high-intensity light source). A function φ(λ) was then calculated as per: […]
If ΦEZ and ΦZE are equal and independent of wavelength, φ(λ) gives the true PSS(λ). The wavelength independence of ΦEZ and ΦZE may be an acceptable approximation in regions of relatively strong absorption within the visible spectrum. Their equality may also be an acceptable assumption: since if ΦEZ and ΦZE are unequal but only depend weakly on wavelength in regions of relatively strong absorption, then φ(λ) is a transform of the true PSS(λ); this transform preserves the features of PSS(λ) which were most desired for evaluation in this study as long as ΦEZ and ΦZE are not too different (eg less than a factor of ten difference). Indeed, the calculated φ(λ) were later confirmed by in cellulo experiments to give reliable indications of favourable wavelengths for bulk trans->cis and bulk cis->trans photoisomerisation, which is the benchmark for a suitable analysis of the PSS(λ). The advantages of calculating φ(λ) rather than exhaustively measuring the PSS(λ) experimentally are that (a) the throughput is much faster, (b) the true PSS(λ) may be difficult to achieve at weakly-absorbing wavelengths or with fast-relaxing compounds, (c) the true PSS(λ) may be difficult to measure accurately at wavelengths where one isomer strongly dominates the sample even if both are relatively strongly absorbing, and (d) the variation of PSS(λ) with changes in the local biological microenvironment (polarity, pH etc) may anyway be larger than the error incurred by the assumption φ(λ)═PSS(λ).
Also following the assumption that ΦEZ and ΦZE are equal and independent of wavelength, a photoisomerisation efficiency E(λ) was calculated as per:
E(λ)=[εE(λ)+εZ(λ)]/[εE(390)+εZ(390)]
Larger values of E(λ) therefore denote higher efficiency photoisomerisation (less photon flux is required to approach the PSS(λ)). E(λ) was parametrised to the absorption coefficients at 390 nm, since typically that wavelength gave satisfactorily strong absorption and efficient photoisomerisation. It should be noted that E(λ) are not intercomparable between different compounds. This reflects the realistic scenario that the ΦEZ (or the ΦZE) of two arbitrarily chosen compounds may differ by a significant amount, even if the approximation that ΦEZ and ΦZE are equal and independent of wavelength applies independently to each compound.
A(λstrong) was measured over time in the UV-Vis cuvette in non-degassed PBS left open to the atmosphere, […], at 37° C., while the monochromator was used to apply λirrad alternating between two values λ1 and λ2, chosen to induce net trans->cis and net cis->trans isomerisation respectively. Typical results are presented for compound I.1 (FIG. 3). The absorbance of I.1 (18 μM) was measured at λstrong=378 nm, while the irradiating wavelength was held alternately at λ1=388 nm (50 s; bulk trans->cis) then λ2=508 nm (180 s, bulk cis->trans). Higher absorbance corresponds to a greater amount of trans isomer: an absorbance of 0.27 here corresponds to an approximately 5:1 ratio of trans:cis isomer in the sample, and an absorbance of 0.12 here corresponds to an approximately 1:2 ratio of trans:cis isomer in the sample. […] Typically, compounds of the invention could be bulk-photoisomerised hundreds of times over a timescale of hours (50 representative cycles are shown in FIG. 3 for I.1), such that the majority species in a sample was photocontrollably alternated between the trans-isomer and the cis-isomer. […]

[4] = 100 nM, 390 nm (75 ms every 15 s)
[5] = 500 nM, 390 nm (75 ms every 15 s)
[6] = 1 μM, 390 nm (75 ms every 15 s)
[7] = 2 μM, 390 nm (75 ms every 15 s)
[8] = 5 μM, 390 nm (75 ms every 15 s)
[9] = 10 μM, 390 nm (75 ms every 15 s)

εE(λstrong) [1]	λiso [1]	λstrong [1]	τ, reversion time [2]	SMILES	mean fold growth (HeLa cells; [4])	mean fold growth (HeLa cells; 100 nM, Dark)	mean fold growth (HeLa cells; [5])	mean fold growth (HeLa cells; 500 nM, Dark)	mean fold growth (HeLa cells; [6])	mean fold growth (HeLa cells; 1 μM, Dark)	mean fold growth (HeLa cells; [7])	mean fold growth (HeLa cells; 2 μM, Dark)	mean fold growth (HeLa cells; [8])	mean fold growth (HeLa cells; 5 μM, Dark)	mean fold growth (HeLa cells; [9])	mean fold growth (HeLa cells; 10 μM, Dark)	change in absorbance spectrum upon irradiation [3]
13300 M⁻¹ cm⁻¹	445 nm	365 nm	61 min	COc1ccc(N=Nc2cc(OC)c(OC)c(OC)c2)cc1F [I.3, 1-(3-fluoro-4-methoxyphenyl)-2-(3,4,5-trimethoxyphenyl)diazene]	0.93 fold	1.03 fold	0.88 fold	1.00 fold	0.82 fold	0.95 fold	0.62 fold	0.90 fold	0.39 fold	0.96 fold	0.47 fold	0.99 fold	
19804 M⁻¹ cm⁻¹	455 nm	365 nm	119 min	COc1ccc(N=Nc2cc(OC)c(OC)c(OC)c2)c(F)c1 [I.4, 1-(2-fluoro-4-methoxyphenyl)-2-(3,4,5-trimethoxyphenyl)diazene]	0.98 fold	0.93 fold	0.78 fold	0.93 fold	0.53 fold	0.89 fold	0.48 fold	0.94 fold	0.44 fold	0.94 fold	0.36 fold	0.78 fold	
16300 M⁻¹ cm⁻¹	445 nm	365 nm	83 min	COc1ccc(N=Nc2cc(OC)c(OC)c(OC)c2)cc1 [I.6, 1-(4-methoxyphenyl)-2-(3,4,5-trimethoxyphenyl)diazene, reference compound]	0.99 fold	1.00 fold	1.09 fold	1.07 fold	0.79 fold	0.96 fold	0.47 fold	0.96 fold	0.68 fold	0.93 fold	0.37 fold	0.88 fold	
14900 M⁻¹ cm⁻¹		390 nm	TOO FAST	COc1ccc(N=Nc2cc(OC)c(OC)c(OC)c2)c(O)c1 [I.8, 5-methoxy-2-((3,4,5-trimethoxyphenyl)diazenyl)phenol]													no measurable change in absorbance spectrum
14430 M⁻¹ cm⁻¹		410 nm	TOO FAST	COc1ccc(N=Nc2cc(OC)c(OC)c(OC)c2)c(N)c1 [I.16, 5-methoxy-2-((3,4,5-trimethoxyphenyl)diazenyl)aniline]													no measurable change in absorbance spectrum
10872 M⁻¹ cm⁻¹		385 nm	TOO FAST	COc1ccc(N=Nc2cc(OC)c(OC)c(OC)c2)c(O)c1C [I.17, 3-methoxy-2-methyl-6-((3,4,5-trimethoxyphenyl)diazenyl)phenol]													no measurable change in absorbance spectrum
